Results taken from patent US10322110B2, “Imidazole-based antimicrobial agents” (priority 2014, dated 2019).
≈ marks a conversion by molar mass, not a printed value.

Assays:
Type in all cases: cell-based
[1] = system: Staphylococcus aureus MRSA (COL); test: broth microdilution MIC assay, Staphylococcus aureus MRSA (COL); conditions: 24 h; for Antibacterial activity Staphylococcus aureus (MRSA): MIC100 class score, broth microdilution; for MIC: Staphylococcus aureus, MRSA, read-out: Antibacterial activity Staphylococcus aureus (MRSA)
[2] = system: Streptococcus pneumoniae (Chester, ATCC49619); test: broth microdilution MIC assay, Streptococcus pneumoniae; conditions: MIC100 class score, 24 h
[3] = system: Staphylococcus aureus MSSA (Newman); test: broth microdilution MIC assay, Staphylococcus aureus MSSA (Newman); conditions: 24 h; for MIC: Staphylococcus aureus, read-out: Antibacterial activity Staphylococcus aureus (MSSA)

Row | Compound | MIC [3] [µg/mL] | MIC [1] [µg/mL] | also measured
1 | CCCc1nc(-c2csc(-c3ccccc3C(F)(F)F)c2)[nH]c1C [Compound 113] | – | – | Antibacterial activity Staphylococcus aureus (MRSA) [1]: 3 (MIC100 of 3-10 μg/ml)
2 | CCCc1nc(-c2sc(-c3ccccc3C(F)(F)F)c3c2OCCO3)[nH]c1C [Compound 114] | – | – | Antibacterial activity Staphylococcus aureus (MRSA) [1]: 3 (MIC100 of 3-10 μg/ml)
3 | COc1cccc(-c2nc(-c3nc(-c4ccccc4)c(C)[nH]3)cs2)c1 [Compound 116] | – | – | Antibacterial activity Streptococcus pneumoniae [2]: 3 (MIC100 of 2-5 μg/ml)
4 | Cc1[nH]c(-c2ccc(-c3cccc(F)c3)s2)nc1-c1ccccc1 [Compound 117] | 20 to 50 (≈ 59.8 to 150 µM) | – | –
5 | Cc1nc(-c2ccc(-c3ccc(O)cc3F)o2)[nH]c1-c1ccc(O)cc1 [Compound 120] | – | – | Antibacterial activity Streptococcus pneumoniae [2]: 3 (MIC100 of 2-5 μg/ml); Antibacterial activity Staphylococcus aureus (MSSA) ([3]; MIC100 class score, broth microdilution): 2 (MIC100 of 11-201 μg/ml)
6 | Fc1ccc(-c2ccc(-c3nc4ccccc4[nH]3)o2)cc1 [Compound 121] | – | – | Antibacterial activity Streptococcus pneumoniae [2]: inactive
7 | Fc1ccc(-c2ccc(-c3nc4ccccc4[nH]3)o2)c(F)c1 [Compound 122] | – | – | Antibacterial activity Streptococcus pneumoniae [2]: inactive
8 | Cc1nc(-c2ccc(-c3cccc4[nH]ccc34)o2)[nH]c1-c1ccccc1 [Compound 138] | – | 11 to 201 (≈ 32.4 to 592 µM) | –
9 | Cc1nc(-c2ccc(-c3ccc(O)cc3C(F)(F)F)o2)[nH]c1-c1ccccc1 [Compound 139] | 1 to 3 (≈ 2.6 to 7.81 µM) | 1 to 3 (≈ 2.6 to 7.81 µM) | –
10 | Cc1nc(-c2ccc(-c3cc4ccccc4o3)o2)[nH]c1-c1ccccc1 [Compound 140] | – | 11 to 201 (≈ 32.3 to 591 µM) | –
11 | Cc1nc(-c2ccc(-c3ccc(N4CCN(C)CC4)cc3)o2)[nH]c1-c1ccccc1 [Compound 141] | – | 20 to 50 (≈ 50.2 to 125 µM) | –
12 | Cc1nc(-c2ccc(-c3cccc(C(F)(F)F)c3)o2)[nH]c1-c1ccccc1 [Compound 142] | 1 to 3 (≈ 2.71 to 8.14 µM) | 1 to 3 (≈ 2.71 to 8.14 µM) | –
13 | Cc1nc(-c2ccc(-c3ccc4[nH]ccc4c3)o2)[nH]c1-c1ccccc1 [Compound 144] | 3 to 10 (≈ 8.84 to 29.5 µM) | 3 to 10 (≈ 8.84 to 29.5 µM) | –
14 | Cc1nc(-c2ccc(-c3cccc(O)c3)o2)[nH]c1-c1ccccc1 [Compound 145] | 11 to 201 (≈ 34.8 to 635 µM) | 20 to 50 (≈ 63.2 to 158 µM) | –
15 | Cc1nc(-c2ccc(-c3cccc(F)c3)o2)[nH]c1-c1ccccc1 [Compound 146] | 3 to 10 (≈ 9.42 to 31.4 µM) | 3 to 10 (≈ 9.42 to 31.4 µM) | –
16 | Cc1nc(-c2ccc(-c3ccc(F)cc3F)o2)[nH]c1-c1ccccc1 [Compound 147] | 1 to 3 (≈ 2.97 to 8.92 µM) | 1 to 3 (≈ 2.97 to 8.92 µM) | –
17 | Cc1nc(-c2ccc(-c3ccc(F)cc3)o2)[nH]c1-c1ccccc1 [Compound 148] | 3 to 10 (≈ 9.42 to 31.4 µM) | 3 to 10 (≈ 9.42 to 31.4 µM) | –

Row | Compound | MIC [3] [µg/mL] | MIC [1] [µg/mL] | also measured
18 | Cc1nc(-c2ccc(-c3ccccc3O)o2)[nH]c1-c1ccccc1 [Compound 149] | 11 to 201 (≈ 34.8 to 635 µM) | 20 to 50 (≈ 63.2 to 158 µM) | –
19 | Cc1nc(-c2ccc(-c3ccc(O)cc3)o2)[nH]c1-c1ccccc1 [Compound 150] | 11 to 201 (≈ 34.8 to 635 µM) | 11 to 201 (≈ 34.8 to 635 µM) | –
20 | Cc1nc(-c2ccc(-c3ccc4cc[nH]c4c3)o2)[nH]c1-c1ccccc1 [Compound 152] | 3 to 10 (≈ 8.84 to 29.5 µM) | 3 to 10 (≈ 8.84 to 29.5 µM) | –
21 | Cc1nc(-c2ccc(-c3ccc(F)c(F)c3)o2)[nH]c1-c1ccccc1 [Compound 153] | 3 to 10 (≈ 8.92 to 29.7 µM) | 3 to 10 (≈ 8.92 to 29.7 µM) | –
22 | Cc1nc(-c2ccc(-c3ccc4cc(O)ccc4c3)o2)[nH]c1-c1ccccc1 [Compound 154] | 11 to 201 (≈ 30 to 549 µM) | 11 to 201 (≈ 30 to 549 µM) | –
23 | Cc1nc(-c2ccc(-c3ccc(O)c(C(F)(F)F)c3)o2)[nH]c1-c1ccccc1 [Compound 155] | 3 to 10 (≈ 7.81 to 26 µM) | 11 to 201 (≈ 28.6 to 523 µM) | –
24 | Cc1nc(-c2ccc(-c3ccc(O)c(Cl)c3)o2)[nH]c1-c1ccccc1 [Compound 157] | 3 to 10 (≈ 8.55 to 28.5 µM) | 11 to 201 (≈ 31.4 to 573 µM) | –
25 | Cc1nc(-c2ccc(-c3ccc(O)cc3Cl)o2)[nH]c1-c1ccccc1 [Compound 158] | 1 to 3 (≈ 2.85 to 8.55 µM) | 1 to 3 (≈ 2.85 to 8.55 µM) | –
26 | Cc1nc(-c2ccc(-c3ccc4occc4c3)o2)[nH]c1-c1ccccc1 [Compound 159] | 3 to 10 (≈ 8.81 to 29.4 µM) | 20 to 50 (≈ 58.8 to 147 µM) | –
27 | Cc1nc(-c2ccc(-c3cc4ccccc4[nH]3)o2)[nH]c1-c1ccccc1 [Compound 160] | 3 to 10 (≈ 8.84 to 29.5 µM) | 11 to 201 (≈ 32.4 to 592 µM) | –
28 | Cc1nc(-c2ccc(-c3cccc4cc[nH]c34)o2)[nH]c1-c1ccccc1 [Compound 161] | 3 to 10 (≈ 8.84 to 29.5 µM) | 1 to 3 (≈ 2.95 to 8.84 µM) | –
29 | Cc1[nH]c(-c2ccc(-c3ccccc3F)o2)nc1-c1ccccc1 [Compound 162] | 3 to 10 (≈ 9.42 to 31.4 µM) | 3 to 10 (≈ 9.42 to 31.4 µM) | –
30 | Cc1cc(F)ccc1-c1ccc(-c2nc(-c3ccccc3)c(C)[nH]2)o1 [Compound 164] | 3 to 10 (≈ 9.03 to 30.1 µM) | – | –
31 | Cc1[nH]c(-c2cnn(-c3ccc(F)cc3)c2)nc1-c1ccccc1 [Compound 166] | 20 to 50 (≈ 62.8 to 157 µM) | 20 to 50 (≈ 62.8 to 157 µM) | –
32 | Cc1[nH]c(-c2cnn(-c3ccccc3)c2)nc1-c1ccccc1 [Compound 167] | – | 20 to 50 (≈ 66.6 to 166 µM) | –
33 | Cc1nc(-c2ccc(-c3ccc(O)cc3F)o2)[nH]c1-c1ccccc1 [Compound 168] | 3 to 10 (≈ 8.97 to 29.9 µM) | 3 to 10 (≈ 8.97 to 29.9 µM) | –
